Experiment [1] deals with Human recombinant GST-PI3K. In words: PI3K induced-lipid phosphorylation scintillation proximity assay (neomycin-coated SPA beads). It counts as biochemical. The following applies: amount necessary to achieve 50% inhibition of PI3K; 120 min at room temperature. The text has this:
The efficacy of compounds of the invention in inhibiting the PI3K induced-lipid phosphorylation may be tested in the following binding assay. The assay combines the scintillation proximity assay technology (SPA, Amersham) with the capacity of neomycin (a polycationic antibiotic) to bind phospholipids with high affinity and specificity. The Scintillation Proximity Assay is based on the properties of weakly emitting isotopes (such as ^3H, ^125I, ^33P). Coating SPA beads with neomycin allows the detection of phosphorylated lipid substrates after incubation with recombinant PI3K and radioactive ATP in the same well, by capturing the radioactive phospholipids to the SPA beads through their specific binding to neomycin. To a 96 wells MTP containing 10 μl of the test compound of Formula (I) (solubilized in 10% DMSO; to yield a concentration of 100, 25, 5.0, 1.25, 0.312, 0.078, 0.0195, 0.00488, 0.00122 and 0.0003 μM of the test compound), the following assay components are added: 1) 10 μL of lipid micelles 2) […] of Kinase buffer ([^33P]γATP162 μM/300 nCi, MgCl2 2.5 mM, DTT 2.5 mM, Na3VO4 25 μM in Hepes 40 mM, pH 7.4) and 3) 10 μL (100 ng) of Human recombinant GST-PI3K (in Hepes 40 mM, pH 7.4, ethylenglycol 4%). After incubation at room temperature for 120 minutes, with gentle agitation, the reaction is stopped by addition of 200 μL of a solution containing 250 μg of neomycin-coated PVT SPA beads, ATP 60 mM and EDTA 6.2 mM in PBS. The assay is further incubated at room temperature for 60 minutes with gentle agitation to allow binding of phospholipids to neomycin-SPA beads. After precipitation of the neomycin-coated PVT SPA beads for 5 minutes at 1500×g, radioactive PtdIns(3)P is quantified by scintillation counting in a Wallac MicroBeta™ plate counter. The values indicated in Table I below refer to the IC50 (μM) with respect to PI3K, i.e. the amount necessary to achieve 50% inhibition of said target. Said values show a considerable inhibitory potency of pyridopyrimidine compounds with regard to PI3K.

Another experiment has as its target CK2 protein kinase. The following applies: Fruman et al., 1998; cited from earlier work.

As for `O=C(O)c1ccc2nc(N3CCOCC3)nc(-c3cccc(O)c3)c2n1` [Example 41, 4-(3-Hydroxyphenyl)-2-morpholin-4-ylpyrido[3,2-d]pyrimidine-6-carboxylic acid], in experiment [1], the 50% inhibitory concentration (IC50) stood at 63 nM.
Still for that read-out and setting: next, `CN(C)c1cc(C(=O)O)nc2c(-c3ccccc3O)nc(N3CCOCC3)nc12` [Example 42, 8-(Dimethylamino)-4-(2-hydroxyphenyl)-2-morpholin-4-ylpyrido[3,2-d]pyrimidine-6-carboxylic acid]: 23 nM; `CN(C)CCN(C)c1cc(C(=O)O)nc2c(-c3ccccc3O)nc(N3CCOCC3)nc12` [Example 43, 8-[[2-(Dimethylamino)ethyl](methyl)amino]-4-(2-hydroxyphenyl)-2-morpholin-4-ylpyrido[3,2-d]pyrimidine-6-carboxylic acid]: 459 nM; `O=C(O)c1cc(NCCO)c2nc(N3CCOCC3)nc(-c3ccccc3O)c2n1` [Example 44, 8-[(2-Hydroxyethyl)amino]-4-(2-hydroxyphenyl)-2-morpholin-4-ylpyrido[3,2-d]pyrimidine-6-carboxylic acid]: 82 nM.
For the molecule `CS(=O)(=O)c1cc(C(=O)O)nc2c(-c3ccc(O)c(F)c3)nc(N3CCOCC3)nc12` [Example 45, 4-(3-Fluoro-4-hydroxyphenyl)-8-(methylsulfonyl)-2-morpholin-4-ylpyrido[3,2-d]pyrimidine-6-carboxylic acid], the IC50 in experiment [1] amounted to 335 nM.
Consider `COCCNc1cc(C(=O)O)nc2c(-c3ccc(CO)cc3)nc(N3CCOCC3)nc12` [Example 46, 4-[4-(Hydroxymethyl)phenyl]-8-[(2-methoxyethyl)amino]-2-morpholin-4-ylpyrido[3,2-d]pyrimidine-6-carboxylic acid], for which the IC50 in experiment [1] worked out at 346 nM.
On the same count and under the same terms, next, `COCCN(C)c1cc(C(=O)O)nc2c(-c3cccc(CO)c3)nc(N3CCOCC3)nc12` [Example 47, 4-[3-(Hydroxymethyl)phenyl]-8-[(2-methoxyethyl)(methyl)amino]-2-morpholin-4-ylpyrido[3,2-d]pyrimidine-6-carboxylic acid]: 8 nM.
On the same count and under the same terms, then `O=C(O)c1cc(NCCO)c2nc(N3CCOCC3)nc(-c3cccc(CO)c3)c2n1` [Example 48, 8-[(2-Hydroxyethyl)amino]-4-[3-(hydroxymethyl)phenyl]-2-morpholin-4-ylpyrido[3,2-d]pyrimidine-6-carboxylic acid], with 27 nM; and `CN(C)c1cc(C(=O)O)nc2c(-c3ccc(F)c(CO)c3)nc(N3CCOCC3)nc12` [Example 49, 8-(Dimethylamino)-4-[4-fluoro-3-(hydroxymethyl)phenyl]-2-morpholin-4-ylpyrido[3,2-d]pyrimidine-6-carboxylic acid], with 329 nM; and `CN(CCO)c1cc(C(=O)O)nc2c(-c3ccc(F)c(CO)c3)nc(N3CCOCC3)nc12` [Example 50, 4-[4-Fluoro-3-(hydroxymethyl)phenyl]-8-[(2-hydroxyethyl)(methyl)amino]-2-morpholin-4-ylpyrido[3,2-d]pyrimidine-6-carboxylic acid], with 303 nM.
`COCCN(C)c1cc(C(=O)O)nc2c(-c3ccc(F)cc3O)nc(N3CCOCC3)nc12` [Example 51, 4-(4-Fluoro-2-hydroxyphenyl)-8-[(2-methoxyethyl)(methyl)amino]-2-morpholin-4-ylpyrido[3,2-d]pyrimidine-6-carboxylic acid]: the 50% inhibitory concentration (IC50) in experiment [1] was determined as 62 nM.
Same read-out and setting: next, `CN(C)c1cc(C(=O)O)nc2c(-c3ccc(F)cc3O)nc(N3CCOCC3)nc12` [Example 52, 8-(Dimethylamino)-4-(4-fluoro-2-hydroxyphenyl)-2-morpholin-4-ylpyrido[3,2-d]pyrimidine-6-carboxylic acid]: 83 nM.
On the same count and under the same terms, next, `CNc1cc(C(=O)O)nc2c(-c3ccc(F)cc3O)nc(N3CCOCC3)nc12` [Example 53, 4-(4-Fluoro-2-hydroxyphenyl)-8-(methylamino)-2-morpholin-4-ylpyrido[3,2-d]pyrimidine-6-carboxylic acid]: 412 nM; `COCCNc1cc(C(=O)O)nc2c(-c3ccc(F)cc3O)nc(N3CCOCC3)nc12` [Example 54, 4-(4-Fluoro-2-hydroxyphenyl)-8-[(2-methoxyethyl)amino]-2-morpholin-4-ylpyrido[3,2-d]pyrimidine-6-carboxylic acid]: 89 nM; `CS(=O)(=O)c1cc(C(=O)O)nc2c(-c3cc(F)ccc3O)nc(N3CCOCC3)nc12` [Example 55, 4-(5-Fluoro-2-hydroxyphenyl)-8-(methylsulfonyl)-2-morpholin-4-ylpyrido[3,2-d]pyrimidine-6-carboxylic acid]: 139 nM.
In the case of `CS(=O)(=O)c1cc(C(=O)O)nc2c(-c3cc(O)cc(F)c3)nc(N3CCOCC3)nc12` [Example 56, 4-(3-Fluoro-5-hydroxyphenyl)-8-(methylsulfonyl)-2-morpholin-4-ylpyrido[3,2-d]pyrimidine-6-carboxylic acid], the IC50 in experiment [1] turned out to be 15 nM.
Same read-out and setting: next, `CN(C)CCN(C)c1cc(C(=O)O)nc2c(-c3cccc4[nH]ccc34)nc(N3CCOCC3)nc12` [Example 57, 8-[[2-(Dimethylamino)ethyl](methyl)amino]-4-(1H-indol-4-yl)-2-morpholin-4-ylpyrido[3,2-d]pyrimidine-6-carboxylic acid]: 137 nM.
As to `Cc1cc(O)ccc1-c1nc(N2CCOCC2)nc2c(N(C)CCO)cc(C(=O)O)nc12` [Example 58, 8-[(2-Hydroxyethyl)(methyl)amino]-4-(4-hydroxy-2-methylphenyl)-2-morpholin-4-ylpyrido[3,2-d]pyrimidine-6-carboxylic acid], the IC50 in experiment [1] stood at 936 nM.
Turning to `CN(CCO)c1cc(C(=O)O)nc2c(-c3ccc(F)cc3O)nc(N3CCOCC3)nc12` [Example 59, 4-(4-Fluoro-2-hydroxyphenyl)-8-[(2-hydroxyethyl)(methyl)amino]-2-morpholin-4-ylpyrido[3,2-d]pyrimidine-6-carboxylic acid], the half-maximal inhibitory concentration (IC50) in experiment [1] was found to be 220 nM.
On the same count and under the same terms, then `CC(=O)N1CCN(c2cc(C(=O)O)nc3c(-c4cccc(O)c4)nc(N4CCOCC4)nc23)CC1` [Example 60, 8-(4-Acetylpiperazin-1-yl)-4-(3-hydroxyphenyl)-2-morpholin-4-ylpyrido[3,2-d]pyrimidine-6-carboxylic acid], with 80 nM.
With `CS(=O)(=O)N1CCN(c2cc(C(=O)O)nc3c(-c4cccc(O)c4)nc(N4CCOCC4)nc23)CC1` [Example 61, 4-(3-Hydroxyphenyl)-8-[4-(methylsulfonyl)piperazin-1-yl]-2-morpholin-4-ylpyrido[3,2-d]pyrimidine-6-carboxylic acid], the IC50 in experiment [1] is 15 nM.
The same measure, in the same setting: next, `Cc1cc(C(=O)O)nc2c(-c3cccc(O)c3)nc(N3CCOCC3)nc12` [Example 62, 4-(3-Hydroxyphenyl)-8-methyl-2-morpholin-4-ylpyrido[3,2-d]pyrimidine-6-carboxylic acid]: 225 nM; `O=C(O)c1cc(Cl)c2nc(N3CCOCC3)nc(-c3ccccc3)c2n1` [Example 64, 8-Chloro-2-morpholin-4-yl-4-phenylpyrido[3,2-d]pyrimidine-6-carboxylic acid]: 678 nM; `COCCN(C)c1cc(C(=O)O)nc2c(-c3cc(F)cc(F)c3)nc(N3CCOCC3)nc12` [Example 65, 4-(3,5-Difluorophenyl)-8-[(2-methoxyethyl)(methyl)amino]-2-morpholin-4-ylpyrido[3,2-d]pyrimidine-6-carboxylic acid]: 1290 nM.
For `CN(C)c1cc(C(=O)O)nc2c(-c3cccc(C#N)c3)nc(N3CCOCC3)nc12` [Example 66, 4-(3-Cyanophenyl)-8-(dimethylamino)-2-morpholin-4-ylpyrido[3,2-d]pyrimidine-6-carboxylic acid], the concentration for half-maximal inhibition (IC50) in experiment [1] is 1100 nM.
Still for that read-out and setting: then `CS(=O)(=O)N1CCN(c2cc(C(=O)O)nc3c(-c4ccccc4)nc(N4CCOCC4)nc23)CC1` [Example 67, 8-[4-(Methylsulfonyl)piperazin-1-yl]-2-morpholin-4-yl-4-phenylpyrido[3,2-d]pyrimidine-6-carboxylic acid], with 30 nM.
As to `O=c1cc(N2CCOCC2)oc2c(-c3ccccc3)cccc12` [LY294002], the concentration for half-maximal inhibition (IC50) at CK2 protein kinase was 5000 to 10000 nM.

The term IC50 denotes the concentration that inhibits the measured activity by half.

Source of the values: US8609666B2, “2-morpholino-pyrido[3,2-D]pyrimidines” (Merck Serono SA, priority 2009, dated 2013).
